Experiment [1] concerns the target T1, TxtE-BM3R (UniProt C9ZDC6+P14779).
T1 construct: P450BM3 (CYP102A1) reductase domain BM3R with its Domcut-predicted native linker, from B. megaterium ATCC 14581 (GenBank J04832.1); made in house; host or cells: E. coli BL21 (DE3)-GOLD
Kind of experiment: Nitration of fluorinated tryptophan substrates by TxtE-BM3R. It is filed as biochemical, S. scabies 87.22 / B. megaterium ATCC 14581. The method, then:
(§1) P450 reactions contained 0.5 mM substrate, 1 mM NADP^+, 1 mM glucose, ˜10 units/mL self-prepared glucose dehydrogenase crude extract, 1 mM NOC-5 in 100 μL of Tris-HCl buffer (100 mM, pH 8.0). As the positive control, TxtE reaction was also re-constructed in the above mixture further supplemented with 0.43 μM spinach Fer and 0.33 μM Frd. The reactions were initiated by adding 1.5 μM P450s, and incubated at 20° C., 300 rpm on a thermostat (Eppendorf) for 2 hours. Methanol (200 μl) was then added to stop the reactions. After centrifugation, 10 μl solutions were analyzed by HPLC. […] The flow rate was set as 1.5 ml/min, and the products were detected at 211 nm with a PDA detector. […]
(§2) P450 reactions contained 0.5 mM substrate, 1 mM NADP^+, 1 mM glucose, ˜10 units/mL self-prepared glucose dehydrogenase crude extract, 1 mM NOC-5 [3-(aminopropyl)-1-hydroxy-3-isopropyl-2-oxo-1-triazene] in 100 μL of Tris-HCl buffer (100 mM, pH 8.0). […] After centrifugation, 10 μl solutions were analyzed by HPLC. […] The 4-NO2-l-tryptophan was synthesized in a large-scale enzymatic reaction to establish a standard curve for product quantification. […] NADPH consumption in enzyme reactions was measured at 340 nm (ε=6.22 mM^−1·cm^−1) with a Shimadzu UV2700 dual beam UV-Vis spectrophotometer. […] The quantity of nitrated product was determined by HPLC analysis as described above. […]

The target in experiment [2] is TxtE (Streptomyces scabiei, UniProt C9ZDC6). The experiment in a line: Nitration of fluorinated tryptophan substrates by TxtE. It is filed as biochemical, S. scabies 87.22. Set-up: inferred from the pET28 vector and Ni-NTA purification) (C); made in house; host or cells: E. coli BL21 (DE3)-GOLD. The method, then:
as §1, §2

SMILES strings stand for the structures.

On to `N[C@@H](Cc1c[nH]c2cccc(F)c12)C(=O)O` [4-F-L-tryptophan], for which the “overall conversion rate relative to L-tryptophan” value in experiment [1] and in experiment [2] was “about 20%” throughout.
